Test results: patent publication US20100184703A1, “USE OF PEPTIDE DERIVATIVES FOR TREATING PATHOLOGIES RESULTING FROM ISCHEMIA” (CHIESI FARMACEUTICI S.p.A., priority 2007, published 2010)

System: ANF, BNP, fibronectin, β-MHC, TNFR1, TNFR2, TNFα, caspase-2 mRNA
Assay: Quantitative RT-PCR of heart failure, fibrosis, hypertrophy and TNFα signaling markers after ischemia/reperfusion
Type: in vivo, rat
Conditions: IR model
Procedure: In a second series of experiments, quantitative RT-PCR was performed to evaluate the level of expression of 2 markers of heart failure, Atrial Natriuretic Factor (ANF) and Brain Natriuretic Factor (BNP) as well as a marker of myocardial fibrosis, fibronectine, and myocardial hypertrophy, βMHC. […] B. mRNA expression levels of fibronectin a marker of fibrosis development, and β-Myosin Heavy Chain (β-MHC) a marker for hypertrophy development

[1] = increase in vehicle-injected animals

Etanercept was tested, and the “mRNA expression level of TNFα” value [1] was “not by Etanercept”, the “mRNA expression level of TNFα receptor 2 (TNFR2)” value [1] was “not by Etanercept” and the “mRNA expression level of caspase-2” value [1] was “not by Etanercept”. The “mRNA expression level of fibronectin” value (marker of fibrosis development) was “could only prevent fibrosis development”, the “mRNA expression level of Atrial Natriuretic Factor (ANF)” value (marker of heart failure) was “significant increase” and the “mRNA expression level of brain natriuretic peptide (BNP)” value (marker of heart failure) was “significant increase”.
